For orientation: Ki means the equilibrium dissociation constant of an inhibitor or competing ligand from its target. A higher Ki goes with a looser hold on the target.

Data on two compounds can be found in patent US11549123B2, “Plant EPSP synthases and methods of use” (PIONEER HI-BRED INTERNATIONAL, INC., priority 2015, dated 2023).

Assay [1] has as its target T1, Zea mays EPSPS variant G102A (Zea mays, UniProt O24566, G101A).
T1 sequence (O24566 with tags, fused parts or gaps G101A): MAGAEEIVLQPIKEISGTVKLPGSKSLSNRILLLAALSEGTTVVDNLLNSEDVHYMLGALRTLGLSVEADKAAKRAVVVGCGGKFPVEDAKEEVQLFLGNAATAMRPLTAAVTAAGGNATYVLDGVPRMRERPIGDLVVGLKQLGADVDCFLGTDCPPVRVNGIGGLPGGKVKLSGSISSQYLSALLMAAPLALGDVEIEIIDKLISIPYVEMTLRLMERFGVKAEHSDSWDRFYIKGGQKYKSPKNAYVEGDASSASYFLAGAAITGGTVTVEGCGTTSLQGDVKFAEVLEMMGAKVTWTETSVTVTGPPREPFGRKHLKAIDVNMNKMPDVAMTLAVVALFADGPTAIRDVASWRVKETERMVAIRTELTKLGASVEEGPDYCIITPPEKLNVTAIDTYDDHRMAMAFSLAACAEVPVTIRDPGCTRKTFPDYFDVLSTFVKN
Description: EPSPS substrate saturation kinetics, G102A.

The subject of assay [2] is Zea mays EPSPS variant G-W at positions 103-107 (EPSPS-TGPW; T103G P107W). Description: EPSPS substrate saturation kinetics, maize variant 103G 107W (EPSPS-TGPW). Type of assay: biochemical. The method, then: (§1) EPSPS activity was determined by quantifying the phosphate generated from the EPSPS reaction. Release of inorganic phosphate was coupled to reaction with 2-amino-6-mercapto-7-methylpurine ribonucleoside, catalyzed by purine-nucleoside phosphorylase (M R Webb, Proc. Natl. Acad. Sci. 89:4884-4887, 1992). The absorbance change that occurs was monitored at 360 nm, where the extinction is 11,200 M^−1 cm^−1, with a Spectramax plate reader (Molecular Devices). To determine kinetic parameters, the varied substrate was present at seven concentrations (the eighth being the blank, containing no substrate) ranging from 4 to 400 uM and the unvaried substrate present at saturation. Six microliters of 50-fold concentrated stock solutions of the varied substrate were placed in the wells of the 96-well assay plate and reactions were started with the addition of a mixture containing 25 mM Hepes, pH 7, 100 mM KCl, 0.3 mM 2-amino-6-mercapto-7-methylpurine ribonucleosde, 1 uM (1 unit/ml) purine-nucleoside phosphorylase (Sigma N8264) and 200 uM of the non-varied substrate. Reactions were monitored with a Spectramax plate reader. The Michaelis-Menten kinetics protocol of the Spectramax software was customized for the substrate concentrations used. The software returns values of KM and Vmax using the Lineweaver-Burke transformation of the Michaelis-Menten equation. To determine kcat, Vmax (uM/min) was divided by the enzyme concentration (uM). […] KI was then calculated from the following form of the Michaelis-Menten equation for competitive inhibition: KI=KM[I]/(KM app−KM) KM approximates the dissociation constant of the enzyme-substrate complex while kcat is the rate of conversion of substrate to product when the substrate concentration is saturating. kcat/KM is a widely accepted parameter for catalytic efficiency when substrate concentration is low (˜KM). […] The parameter kcat/KM×KI is used to quantify both catalytic efficiency and insensitivity and thus the overall fitness of the enzyme.
(§2) NNK-enabled saturation mutagenesis was performed at positions 103 and 107 in the maize EPSPS sequence, and transformed BL21 DE3 cells were screened as described above.

The target of assay [3] is T2, Zea mays EPSPS variant G-W at positions 103-107 (EPSPS-TGPW; T103G P107W) (Zea mays, UniProt O24566, P106W/T102G).
T2 sequence (O24566 with tags, fused parts or gaps T102G/P106W): T1 sequence (O24566 with tags, fused parts or gaps G101A) with A102G, T103G, P107W
The assay is described as above. The assay is classed as biochemical. The method, then: as §1, §2

The target of assay [4] is T3, Zea mays EPSPS variant S-N at positions 103-107 (Zea mays, UniProt O24566, P106N/T102S).
T3 sequence (O24566 with tags, fused parts or gaps T102S/P106N): T1 sequence (O24566 with tags, fused parts or gaps G101A) with A102G, T103S, P107N
In words: EPSPS substrate saturation kinetics, maize variant 103S 107N. The assay is classed as biochemical. The method, then: as §1, with “enzyme. […]” for “enzyme.”

[5] abbreviates: PEP as substrate, glyphosate as inhibitor.

SMILES strings stand for the structures. Substitutions are numbered along the chain they refer to.

Consider `O=C(O)CNCP(=O)(O)O` [glyphosate, N-phosphonomethylglycine], for which the Ki in assay [1] (KI (glyphosate), competitive with PEP) is 2290 µM; in assay [1] (Ki, substrate saturation, Zm-G102A) it was 1340 µM; in assay [3] it was 403 µM; in assay [4], 244 µM. Also, the “(kcat/KM)*KI” value is on record as 5137 in assay [1] (setting [5]); 2820 in assay [1] (substrate saturation, Zm-G102A); 1862 in assay [3] (setting [5]); 1033 in assay [4] (setting [5]). Further, the “less sensitive to glyphosate” value in assay [2] (relative to native maize EPSPS) is on record as “about 3,000 fold”.
For `C=C(OP(=O)(O)O)C(=O)O` [PEP, phosphoenolpyruvate], the kcat/KM in assay [1] (PEP) amounted to 2.2 min^−1uM^−1. For the same compound, the kcat was determined as 11.6 s⁻¹ in assay [1] (PEP varied), 379 in assay [3] (PEP varied) and 161 in assay [4] (PEP varied). The “catalytic efficiency (kcat/KM) relative to native maize EPSPS” value in assay [2] (PEP) stood at 5%. In assay [2] (relative to native maize EPSPS), the “higher KM for PEP” value came out at 5 fold. The compound further showed a lower kcat in assay [2] (relative to native maize EPSPS) of 4 fold.
